Source: patent US20190374533A1, “COMPOUNDS AND METHODS FOR INHIBITING NHE-MEDIATED ANTIPORT IN THE TREATMENT OF DISORDERS ASSOCIATED WITH FLUID RETENTION OR SALT OVERLOAD AND GASTROINTESTINAL TRACT DISORDERS” (Ardelyx, Inc., priority 2008, published 2019)

Biological target: T1, rat NHE-3 (Rattus norvegicus, UniProt P26433)
T1 construct: expressed in transfected cells; host or cells: Opossum kidney (OK) cells (ATCC), electroporated
Assay: Cell-based assay of NHE-3 activity (Pharmacological Test Example 1)
Settings: OK cells expressing rat NHE-3; 0-30 uM test compound, 5 uM EIPA
Procedure: Rat NHE-3-mediated Na^+-dependent H^+ antiport was measured using a modification of the pH sensitive dye method originally reported by Tsien (Proc. Natl. Acad. Sci. USA. (1984) 81(23): 7436-7440). Opossum kidney (OK) cells were obtained from the ATCC and propagated per their instructions. The rat NHE-3 gene was introduced into OK cells via electroporation, seeded into 96 well plates and grown overnight. Medium was aspirated from the wells, cells were washed twice with NaCl-HEPES buffer (100 mM NaCl, 50 mM HEPES, 10 mM glucose, 5 mM KCl, 2 mM CaCl2, 1 mM MgCl2, pH 7.4), then incubated for 30 min at room temperature with NH4Cl-HEPES buffer (20 mM NH4Cl, 80 mM NaCl, 50 mM HEPES, 5 mM KCl, 2 mM CaCl2), 1 mM MgCl2, pH 7.4) containing 5 uM BCECF-AM (Invitrogen). Cells were washed twice with Ammonium free, Nat-free HEPES (100 mM choline, 50 mM HEPES, 10 mM glucose, 5 mM KCl, 2 mM CaCl2), 1 mM MgCl2, pH 7.4) and incubated in the same buffer for 10 minutes at room temperature to lower intracellular pH. […] Initial rates were plotted as the average 3-6 replicates, and pIC50 values were estimated using GraphPad Prism.

T1 sequence (P26433 29-831): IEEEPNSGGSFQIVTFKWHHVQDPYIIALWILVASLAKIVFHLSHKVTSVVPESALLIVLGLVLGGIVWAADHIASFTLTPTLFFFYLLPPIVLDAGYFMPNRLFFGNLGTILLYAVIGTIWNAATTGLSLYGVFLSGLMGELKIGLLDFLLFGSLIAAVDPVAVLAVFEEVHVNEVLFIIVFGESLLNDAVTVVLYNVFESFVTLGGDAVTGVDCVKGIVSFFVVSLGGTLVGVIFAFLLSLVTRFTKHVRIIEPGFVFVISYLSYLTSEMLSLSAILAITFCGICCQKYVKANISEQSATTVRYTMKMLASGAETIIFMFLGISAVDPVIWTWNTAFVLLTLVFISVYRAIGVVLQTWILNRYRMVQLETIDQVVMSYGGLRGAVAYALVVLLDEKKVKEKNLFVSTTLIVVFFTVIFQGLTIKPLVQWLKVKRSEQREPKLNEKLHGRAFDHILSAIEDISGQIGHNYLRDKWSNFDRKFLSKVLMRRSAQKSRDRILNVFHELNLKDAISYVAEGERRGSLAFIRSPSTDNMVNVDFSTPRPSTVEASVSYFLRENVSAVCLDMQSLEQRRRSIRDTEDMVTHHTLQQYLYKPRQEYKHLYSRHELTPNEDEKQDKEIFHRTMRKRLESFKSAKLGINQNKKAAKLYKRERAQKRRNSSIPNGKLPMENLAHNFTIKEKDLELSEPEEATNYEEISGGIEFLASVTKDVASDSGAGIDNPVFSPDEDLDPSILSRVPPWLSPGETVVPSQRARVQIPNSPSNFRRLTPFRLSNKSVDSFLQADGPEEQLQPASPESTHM

Which “rat NHE-3 Average pIC50” value does the source give for CN1Cc2c(Cl)cc(Cl)cc2C(c2cccc(S(=O)(=O)NCCOCCOCCNC(=O)COCC(=O)NCCOCCOCCNS(=O)(=O)c3cccc(C4CN(C)Cc5c(Cl)cc(Cl)cc54)c3)c2)C1 (stereo not drawn) [Example 195, 2,2′-oxybis(N-(2-(2-(2-(3-(6,8-dichloro-2-methyl-1,2,3,4-tetrahydroisoquinolin-4-yl)phenylsulfonamido)ethoxy)ethoxy)ethyl)acetamide)] here?
The value was greater than 7.

For CN1Cc2c(Cl)cc(Cl)cc2C(c2cccc(S(=O)(=O)NCCOCCOCCOCCNC(=O)CCCCCCC(=O)NCCOCCOCCOCCNS(=O)(=O)c3cccc(C4CN(C)Cc5c(Cl)cc(Cl)cc54)c3)c2)C1 (stereo not drawn) [Example 29, N1,N8-bis(2-(2-(2-(2-(3-(6,8-dichloro-2-methyl-1,2,3,4-tetrahydroisoquinolin-4-yl)phenylsulfonamido)ethoxy)ethoxy)ethoxy)ethyl)octanediamide], which “rat NHE-3 Average pIC50” value is on record?
The value was 6 to 7.

Which “rat NHE-3 Average pIC50” value does the source give for CN1Cc2c(Cl)cc(Cl)cc2C(c2ccc(S(=O)(=O)NCCOCCOCCNC(=O)C(=O)NCCOCCOCCNS(=O)(=O)c3ccc(C4CN(C)Cc5c(Cl)cc(Cl)cc54)cc3)cc2)C1 (stereo not drawn) [Example 175, N1,N2-bis(2-(2-(2-(4-(6,8-dichloro-2-methyl-1,2,3,4-tetrahydroisoquinolin-4-yl)phenylsulfonamido)ethoxy)ethoxy)ethyl)oxalamide] here?
The value was less than 5.0.

CN1Cc2c(Cl)cc(Cl)cc2C(c2ccc(S(=O)(=O)NCCOCCOCCOCCNC(=O)NCCOCCOCCOCCNS(=O)(=O)c3ccc(C4CN(C)Cc5c(Cl)cc(Cl)cc54)cc3)cc2)C1 (stereo not drawn) [Example 103, N,N′-(13-oxo-3,6,9,17,20,23-hexaoxa-12,14-diazapentacosane-1,25-diyl)bis(4-(6,8-dichloro-2-methyl-1,2,3,4-tetrahydroisoquinolin-4-yl)benzenesulfonamide)] was tested. Which “rat NHE-3 Average pIC50” value did it give?
The value was greater than 7.

How did the “rat NHE-3 Average pIC50” value turn out when C/C(=C\c1cc(F)c(Oc2ccc(S(=O)(=O)NCCOCCOCCOCCOCCOCCOCCNC(=O)C(O)C(O)C(=O)NCCOCCOCCOCCOCCOCCOCCNS(=O)(=O)c3ccc(Oc4c(F)cc(/C=C(\C)C(=O)N=C(N)N)cc4F)cc3)cc2)c(F)c1)C(=O)N=C(N)N (stereo not drawn) [Example 104, N1,N4-bis(20-(4-(4-((E)-3-(diaminomethyleneamino)-2-methyl-3-oxoprop-1-enyl)-2,6-difluorophenoxy)phenylsulfonamido)-3,6,9,12,15,18-hexaoxaicosyl)-2,3-dihydroxysuccinamide] was run?
The value was 6 to 7.

With CN1Cc2c(Cl)cc(Cl)cc2C(c2cccc(S(=O)(=O)NCCOCCOCCNCc3ccc(CNCCOCCOCCNS(=O)(=O)c4cccc(C5CN(C)Cc6c(Cl)cc(Cl)cc65)c4)cc3)c2)C1 (stereo not drawn) [Example 206, N,N′-(2,2′-(2,2′-(2,2′-(1,4-phenylenebis(methylene))bis(azanediyl)bis(ethane-2,1-diyl))bis(oxy)bis(ethane-2,1-diyl))bis(oxy)bis(ethane-2,1-diyl))bis(3-(6,8-dichloro-2-methyl-1,2,3,4-tetrahydroisoquinolin-4-yl)benzenesulfonamide)] as the compound, how does the “rat NHE-3 Average pIC50” value read?
The value was greater than 7.

How did the “rat NHE-3 Average pIC50” value turn out when CN1Cc2c(Cl)cc(Cl)cc2C(c2ccc(S(=O)(=O)NCCOCCOCCOCCNC(=O)CCOCCOCCOCCOCCOCCOCCOCCOCCOCCC(=O)NCCOCCOCCOCCNS(=O)(=O)c3ccc(C4CN(C)Cc5c(Cl)cc(Cl)cc54)cc3)cc2)C1 (stereo not drawn) [Example 98, N1,N31-bis(2-(2-(2-(2-(4-(6,8-dichloro-2-methyl-1,2,3,4-tetrahydroisoquinolin-4-yl)phenylsulfonamido)ethoxy)ethoxy)ethoxy)ethyl)-4,7,10,13,16,19,22,25,28-nonaoxahentriacontane-1,31-diamide] was run?
Its value is greater than 7.

How did the “rat NHE-3 Average pIC50” value turn out when CN1Cc2c(Cl)cc(Cl)cc2C(c2ccc(S(=O)(=O)NCCOCCOCCNC(=O)[C@H](O)[C@@H](O)C(=O)NCCOCCOCCNS(=O)(=O)c3ccc(C4CN(C)Cc5c(Cl)cc(Cl)cc54)cc3)cc2)C1 (stereo partly drawn) [Example 207, (2R,3R)—N1,N4-bis(2-(2-(2-(4-(6,8-dichloro-2-methyl-1,2,3,4-tetrahydroisoquinolin-4-yl)phenylsulfonamido)ethoxy)ethoxy)ethyl)-2,3-dihydroxysuccinamide] was run?
The value was 6 to 7.

C/C(=C\c1cc(F)c(Oc2ccc(S(=O)(=O)NCCOCCOCCOCCN)cc2)c(F)c1)C(=O)N=C(N)N [Example 45, (E)-3-(4-(4-(N-(2-(2-(2-(2-aminoethoxy)ethoxy)ethoxy)ethyl)sulfamoyl)phenoxy)-3,5-difluorophenyl)-N-(diaminomethylene)-2-methylacrylamide] was tested. Which “rat NHE-3 Average pIC50” value did it give?
Its value is 6 to 7.

With CN1Cc2c(Cl)cc(Cl)cc2C(c2cccc(S(=O)(=O)NCCOCCOCCOCCNC(=O)CCOCCOCCOCCOCCOCCOCCOCCOCCOCCC(=O)NCCOCCOCCOCCNS(=O)(=O)c3cccc(C4CN(C)Cc5c(Cl)cc(Cl)cc54)c3)c2)C1 (stereo not drawn) [Example 97, N1,N31-bis(2-(2-(2-(2-(3-(6,8-dichloro-2-methyl-1,2,3,4-tetrahydroisoquinolin-4-yl)phenylsulfonamido)ethoxy)ethoxy)ethoxy)ethyl)-4,7,10,13,16,19,22,25,28-nonaoxahentriacontane-1,31-diamide] as the compound, how does the “rat NHE-3 Average pIC50” value read?
Its value is 6 to 7.

For CN1Cc2c(Cl)cc(Cl)cc2C(c2cccc(S(=O)(=O)NCCOCCOCCOCCNC(=O)NCCOCCOCCOCCNS(=O)(=O)c3cccc(C4CN(C)Cc5c(Cl)cc(Cl)cc54)c3)c2)C1 (stereo not drawn) [Example 100, N,N′-(13-oxo-3,6,9,17,20,23-hexaoxa-12,14-diazapentacosane-1,25-diyl)bis(3-(6,8-dichloro-2-methyl-1,2,3,4-tetrahydroisoquinolin-4-yl)benzenesulfonamide)], which “rat NHE-3 Average pIC50” value is on record?
The value was 6 to 7.

Which “rat NHE-3 Average pIC50” value does the source give for N=C(N)Nc1nc(-c2cccc(N3CCN(CCCN)CC3)c2)c2cc(Cl)ccc2n1 [Example 65, 1-(4-(3-(4-(3-aminopropyl)piperazin-1-yl)phenyl)-6-chloroquinazolin-2-yl)guanidine] here?
Its value is 6 to 7.

Same assay, conditions: OK cells expressing rat NHE-3; 0-30 uM test compound, 5 uM EIPA; read-out: rat NHE-3 Average pIC50 (converted)

For CN1Cc2c(Cl)cc(Cl)cc2C(c2cccc(S(=O)(=O)NCCOCCOCCOCCNC(=O)Nc3ccc(NC(=O)NCCOCCOCCOCCNS(=O)(=O)c4cccc(C5CN(C)Cc6c(Cl)cc(Cl)cc65)c4)cc3)c2)C1 (stereo not drawn) [Example 209, N,N′-(1,1′-(1,4-phenylenebis(azanediyl))bis(1-oxo-5,8,11-trioxa-2-azatridecane-13,1-diyl))bis(3-(6,8-dichloro-2-methyl-1,2,3,4-tetrahydroisoquinolin-4-yl)benzenesulfonamide)], which IC50 is on record?
The IC50 was 1 to 10 µM.

With CN1Cc2c(Cl)cc(Cl)cc2[C@H](c2ccc(S(=O)(=O)NCCOCCOCCOCCNC(=O)NCCCCNC(=O)NCCOCCOCCOCCNS(=O)(=O)c3ccc([C@@H]4CN(C)Cc5c(Cl)cc(Cl)cc54)cc3)cc2)C1 (single isomer, unassigned) [Example 251, (S or R)—N,N′-(13,20-dioxo-3,6,9,24,27,30-hexaoxa-12,14,19,21-tetraazadotriacontane-1,32-diyl)bis(4-((S or R)-6,8-dichloro-2-methyl-1,2,3,4-tetrahydroisoquinolin-4-yl)benzenesulfonamide)] as the compound, how does the IC50 read?
The IC50 was less than 0.1 µM.

With CN1Cc2c(Cl)cc(Cl)cc2C(c2cccc(S(=O)(=O)NCCOCCOCCOCCNS(=O)(=O)c3cccc(S(=O)(=O)NCCOCCOCCOCCNS(=O)(=O)c4cccc(C5CN(C)Cc6c(Cl)cc(Cl)cc65)c4)c3)c2)C1 (stereo not drawn) [Example 219, N1,N3-bis(2-(2-(2-(2-(3-(6,8-dichloro-2-methyl-1,2,3,4-tetrahydroisoquinolin-4-yl)phenylsulfonamido)ethoxy)ethoxy)ethoxy)ethyl)benzene-1,3-disulfonamide] as the compound, how does the IC50 read?
The IC50 was 1 to 10 µM.

C/C(=C\c1cc(F)c(Oc2ccc(S(=O)(=O)NCCOCCOCCOCCNC(=O)CCOCCOCCOCCOCCOCCOCCOCCOCCOCCC(=O)NCCOCCOCCOCCNS(=O)(=O)c3ccc(Oc4c(F)cc(/C=C(\C)C(=O)N=C(N)N)cc4F)cc3)cc2)c(F)c1)C(=O)N=C(N)N [Example 102, N1,N31-bis(2-(2-(2-(2-(4-(4-((E)-3 (diaminomethyleneamino)-2-methyl-3-oxoprop-1-enyl)-2,6-difluorophenoxy)phenylsulfonamido)ethoxy)ethoxy)ethoxy)ethyl)-4,7,10,13,16,19,22,25,28-nonaoxahentriacontane-1,31-diamide] was tested. Which IC50 did it give?
Its IC50 is 0.1 to 1 µM.

With C/C(=C\c1cc(F)c(Oc2ccc(S(=O)(=O)NCCOCCOCCOCCNC(=O)NCCOCCOCCOCCNS(=O)(=O)c3ccc(Oc4c(F)cc(/C=C(\C)C(=O)N=C(N)N)cc4F)cc3)cc2)c(F)c1)C(=O)N=C(N)N [Example 46, N,N′-(13-oxo-3,6,9,17,20,23-hexaoxa-12,14-diazapentacosane-1,25-diyl)bis[(E)-N-(diaminomethylene)-3-(3,5-difluoro-4-(4-sulfamoylphenoxy)phenyl)-2-methylacrylamide]] as the compound, how does the IC50 read?
The IC50 was 0.1 to 1 µM.

CN1Cc2c(Cl)cc(Cl)cc2C(c2cccc(S(=O)(=O)NCCOCCOCCOCCn3cc(COCc4cn(CCOCCOCCOCCNS(=O)(=O)c5cccc(C6CN(C)Cc7c(Cl)cc(Cl)cc76)c5)nn4)nn3)c2)C1 (stereo not drawn) [Example 81, N,N′-(2,2′-(2,2-(2,2′-(2,2′-(4,4′-oxybis(methylene)bis(1H-1,2,3-triazole-4,1-diyl))bis(ethane-2,1-diyl))bis(oxy)bis(ethane-2,1-diyl))bis(oxy)bis(ethane-2,1-diyl))bis(oxy)bis(ethane-2,1-diyl))bis(3-(6,8-dichloro-2-methyl-1,2,3,4-tetrahydroisoquinolin-4-yl)benzenesulfonamide)] was tested. Which IC50 did it give?
The IC50 was less than 0.1 µM.
